Test results taken from US9051342B2 (priority 2004, dated 2015).

| Compound | melting point |
| --- | --- |
| O=C(O)c1cccc(-c2cnn(-c3cccc(OC(F)(F)F)c3)c2)c1 [Compound 223, 3-[1-(3-Trifluoromethoxy-phenyl)-1H-pyrazol-4-yl]-benzoic acid] | 143 to 145 °C |
| CC(C)c1ccc(-n2cnc(-c3cccc(C(=O)O)c3)n2)cc1 [Compound 15, 3-[1-(4-Isopropyl-phenyl)-1H-[1,2,4]triazol-3-yl]-benzoic acid] | 173 to 175 °C |
| O=C(O)c1cccc(-c2ccn(-c3cccc(OCc4ccccc4)c3)n2)c1 [Compound 175, 3-[1-(3-Benzyloxy-phenyl)-1H-pyrazol-3-yl]-benzoic acid] | 152 to 153 °C |
| O=C(O)c1cccc(-n2cc(-c3ccccc3F)cn2)c1 [Compound 84, 3-[4-(2-Fluoro-phenyl)-pyrazol-1-yl]-benzoic acid] | 225 to 226 °C |
| N#Cc1cccc(-c2ccn(-c3ccc(F)c(F)c3)n2)c1 [Compound 63, 3-[1-(3,4-Difluoro-phenyl)-1H-pyrazol-3-yl]-benzonitrile] | 142 to 145 °C |
| COc1ccc(-n2cc(-c3cc(C(=O)O)ccc3[N+](=O)[O-])cn2)cc1 [Compound 55, 3-[1-(4-Methoxy-phenyl)-1H-pyrazol-4-yl]-4-nitro-benzoic acid] | 249 to 250 °C |
| O=C(O)c1cccc(-n2cnc(-c3ccccc3)n2)c1 [Compound 8, 3-(3-Phenyl-[1,2,4]triazol-1-yl)-benzoic acid] | 268 to 271 °C |
| Cc1ccc(-n2cnc(-c3cccc(C(=O)O)c3)n2)cc1 [Compound 14, 3-(1-p-Tolyl-1H-[1,2,4]triazol-3-yl)-benzoic acid] | 263 to 265 °C |
| O=C(O)c1cccc(-n2cc(-c3ccc4ccccc4n3)cn2)c1 [Compound 123, 3-(4-Quinolin-2-yl-pyrazol-1-yl)-benzoic add] | 250 to 252 °C |
| O=C(O)c1cccc(-c2ccn(-c3ccc([N+](=O)[O-])cc3)n2)c1 [Compound 168, 3-[1-(4-Nitro-phenyl)-1H-pyrazol-3-yl]-benzoic acid] | 280 to 281 °C |
| O=C(O)c1cccc(-n2cnc(-c3ccccc3)c2)c1 [Compound 262, 3-(4-Phenyl-imidazol-1-yl)-benzoic acid] | 277 to 279 °C |
| O=C(O)c1cccc(-c2ncn(-c3cc(C(F)(F)F)cc(C(F)(F)F)c3)n2)c1 [Compound 20, 3-[1-(3,5-Bis-trifluoromethyl-phenyl)-1H-[1,2,4]triazol-3-yl]-benzoic acid] | 271 to 273 °C |
| O=C(O)c1cccc(-c2ncn(-c3ccc(-c4cc5ccccc5o4)cc3)n2)c1 [Compound 26, 3-[1-(4-Benzofuran-2-yl-phenyl)-1H-[1,2,4]triazol-3-yl]-benzoic acid] | 293 to 295 °C |
| Cc1ccc(-c2cnn(-c3cccc(C(=O)O)c3)c2)cc1 [Compound 48, 3-(4-p-Tolyl-pyrazol-1-yl)-benzoic acid] | 208 to 209 °C |
| COc1cccc(-n2ccc(-c3cccc(C#N)c3)n2)c1 [Compound 59, 3-[1-(3-Methoxy-phenyl)-1H-pyrazol-3-yl]-benzonitrile] | 100 to 101 °C |
| N#Cc1cccc(-c2ccn(-c3ccc4c(c3)OCO4)n2)c1 [Compound 60, 3-(1-Benzo[1,3]dioxol-5-yl-1H-pyrazol-3-yl)-benzonitrile] | 144 to 147 °C |
| N#Cc1cccc(-c2nn(-c3ccc(C(=O)O)cc3)c(=O)o2)c1 [Compound 280, 4-[5-(3-cyanophenyl)-2-oxo-1,3,4-oxadiazol-3(2H)-yl]benzoic acid] | 294 to 295 °C (dec.) |
| Cc1ccccc1-n1cnc(-c2cccc(C(=O)O)c2)n1 [Compound 40, 3-(1-o-Tolyl-1H-[1,2,4]triazol-3-yl)-benzoic acid] | 209 to 211 °C |
| O=C(O)c1cccc(-c2ncn(-c3ccc(F)c(Cl)c3)n2)c1 [Compound 25, 3-[1-(3-Chloro-4-fluoro-phenyl)-1H-[1,2,4]triazol-3-yl]-benzoic acid] | 270 to 272 °C |
| O=C(O)c1cccc(-c2ncn(-c3ccc(N4CCCC4=O)cc3)n2)c1 [Compound 43, 3-{1-[4-(2-Oxo-pyrrolidin-1-yl)-phenyl]-1H-[1,2,4]triazol-3-yl}-benzoic acid] | 270 to 273 °C |
| COc1ccc(-c2ccn(-c3cccc(C(=O)O)c3)n2)cc1 [Compound 81, 3-[3-(4-Methoxy-phenyl)-pyrazol-1-yl]-benzoic acid] | 210 to 211 °C |

Next, values leading:

| melting point | Compound |
| --- | --- |
| > 350 °C | O=C(O)c1ccc(-n2cc(-c3ccncc3)cn2)cc1 [Compound 116, 4-(4-Pyridin-4-yl-pyrazol-1-yl)-benzoic acid] |
| 243 to 245 °C | O=C(O)c1ccc(-c2ccn(-c3cc(F)cc(F)c3)c2)cc1 [Compound 153, 4-[1-(3,5-Difluoro-phenyl)-1H-pyrrol-3-yl]-benzoic acid] |
| 318 to 320 °C | O=C(O)c1ccc(-c2ccn(-c3ccc(OC(F)(F)F)cc3)c2)cc1 [Compound 131, 4-[1-(4-Trifluoromethoxy-phenyl)-1H-pyrrol-3-yl]-benzoic acid] |
| 327 to 328 °C | O=C(O)c1ccc(-n2cc(-c3cccc(F)c3)nn2)cc1 [Compound 265, 4-[4-(3-Fluoro-phenyl)-[1,2,3]triazol-1-yl]-benzoic acid] |
| 190 to 192 °C | CCc1ccc(-n2ccc(-c3cccc(C(=O)O)c3)c2)cc1 [Compound 125, 3-[1-(4-Ethyl-phenyl)-1H-pyrrol-3-yl]-benzoic acid] |
| 225 to 226 °C | CC(C)c1ccc(-n2cnc(-c3cccc(C(=O)O)c3)c2)cc1 |
| 164 to 165 °C | O=C(O)c1ccc(-c2ccn(-c3ccccc3OC(F)(F)F)c2)cc1 [Compound 199, 4-[1-(2-Trifluoromethoxy-phenyl)-1H-pyrrol-3-yl]-benzoic acid] |
| 247 to 248 °C | O=C(O)c1ccc(-n2cc(-c3cccc(Br)c3)cn2)cc1 [Compound 89, 4-[4-(3-Bromo-phenyl)-pyrazol-1-yl]-benzoic acid] |
| 245 to 246 °C | O=C(O)c1cccc(-c2ccn(-c3ccc(F)cc3)n2)c1 [Compound 96, 3-[1-(4-Fluoro-phenyl)-1H-pyrazol-3-yl]-benzoic acid] |
| 252 to 253 °C | COc1ccc(-n2ccc(-c3ccc(C(=O)O)cc3)n2)cc1 [Compound 217, 4-[1-(4-Methoxy-phenyl)-1H-pyrazol-3-yl]-benzoic acid] |
| 192 to 193 °C | Cc1ccc(-n2ccc(-c3cccc(C(=O)O)c3)n2)cc1 [Compound 166, 3-(1-p-Tolyl-1H-pyrazol-3-yl)-benzoic acid] |
| > 350 °C | O=C(O)c1ccc(-c2ccn(-c3ccc(Cl)cc3)c2)cc1 [Compound 196, 4-[1-(4-Chloro-phenyl)-1H-pyrrol-3-yl]-benzoic acid] |
| 281 to 282 °C | O=C(O)c1ccc(-c2ccn(-c3ccc4[nH]ccc4c3)n2)cc1 [Compound 257, 4-[1-(1H-Indol-5-yl)-1H-pyrazol-3-yl]-benzoic acid] |
| 263 to 265 °C | O=C(O)c1cccc(-c2ncn(-c3ccc(-c4ccccc4)cc3)n2)c1 [Compound 24, 3-(1-Biphenyl-4-yl-1H-[1,2,4]triazol-3-yl)-benzoic acid] |
| > 350 °C | COc1ccccc1-n1ccc(-c2cccc(C(=O)O)c2)c1 [Compound 200, 3-[1-(2-Methoxy-phenyl)-1H-pyrrol-3-yl]-benzoic acid] |
